Columns and labels:
HeLa cells [1] = assay: Transfection of GFP-expressing plasmid DNA in HeLa cells (FCM); assay type: cell-based; conditions: material 0.25-8 μg/well, plasmid DNA 0.5 μg/well, 24 h, compared with Lipofectamine 2000
Experimental: In this experiment, with GFP-expressing plasmid DNA as a reporter gene, a gene transfection efficiency of a cationic lipid analog material in HeLa cells was detected. A specific method was as follows:
HeLa cells were inoculated in a 24-well plate and cultured in an incubator for 12 h; each of different cationic lipid analog materials—(0.25 μg/well to 8 μg/well) was mixed with GFP-expressing plasmid DNA (0.5 μg/well) in 40 μL of a sodium acetate buffer (25 mM, […] resulting mixtures each were allowed to stand for 10 min and then diluted with 460 μL of a Opti-MEM medium to obtain plasmid DNA-loaded cationic lipid analog complex particle solutions; a medium for the HeLa cells in the plate was removed, then the HeLa cells were washed once with PBS, and the complex particle solutions each were added; and the cells were further cultured for 24 h, and then a plasmid DNA transfection efficiency in cells was analyzed by FCM. A commercial gene transfection reagent Lipofectamine 2000 was adopted as a positive control.

HeLa cells [2] = assay: Transfection of luciferase-expressing plasmid DNA in HeLa cells; assay type: cell-based; conditions: 24 h, compared with Lipofectamine 2000
Experimental: In this example, with luciferase-expressing plasmid DNA as a reporter gene, a gene transfection efficiency of a cationic lipid analog material in HeLa cells was detected. A specific operation method was as follows: HeLa cells were inoculated in a 96-well plate and cultured in an incubator for 12 h; each of different cationic lipid analog materials was mixed with luciferase-expressing plasmid DNA (0.5 μg) in 40 μL of a sodium acetate buffer (25 mM, pH 5.2), and resulting mixtures each were allowed to stand for 10 min and then diluted with 460 μL of a Opti-MEM medium to obtain plasmid DNA-loaded cationic lipid analog complex particle solutions; a medium for the HeLa cells in the plate was removed, then the HeLa cells were washed once with PBS, and the complex particle solutions each were added in a volume of 125 μL; the cells were further cultured for 24 h, then a resulting culture supernatant was discarded, and the cells were fully lysed; and a substrate was added at 50 μl/well, and an expression level of luciferase was detected by a multi-mode microplate reader.

[3] = system: DC2.4, RAW 264.7, A549, BxPC3, and HeLa cells; assay: Transfection of GFP-expressing plasmid DNA in different types of cells (LSCM); assay type: cell-based; conditions: material 0.5-3 μg/well, plasmid DNA 0.5 μg/well, 24 h
Experimental: In this experiment, with I2R3C18-1A1 as a representative cationic lipid analog material and GFP-expressing plasmid DNA as a reporter gene, transfection effects of the cationic lipid analog material at different amounts (0.5 μg/well to 3 μg/well) for plasmid DNA (0.5 μg/well) in different types of cells were investigated. A commercial gene transfection reagent Lipofectamine 2000 was adopted as a positive control. In this experiment, a GFP-expressing plasmid DNA-loaded I2R3C18-1A1 particle complex solution was prepared with reference to the method in Example 8 and added to each of DC2.4, RAW 264.7, A549, BxPC3, and HeLa cells, these cells were cultured for 24 h, and then a transfection efficiency of plasmid DNA in cells was observed by LSCM.

DC 2.4 cells = assay: Transfection of eGFP-expressing mRNA in DC 2.4 cells (FCM and LSCM); assay type: cell-based, mouse; conditions: material 0.25-2 μg/well, mRNA 0.2 μg/well, 24 h, compared with Lipofectamine 2000
Experimental: In this experiment, with eGFP-mRNA as model mRNA, an mRNA transfection efficiency of a cationic lipid analog material in DC 2.4 cells was detected. A specific operation method was as follows:
DC 2.4 cells were inoculated in a 48-well plate and cultured in an incubator for 12 h; each of different cationic lipid analog materials (0.25 μg/well to 2 μg/well) was mixed with eGFP-expressing mRNA (0.2 μg/well) in 20 μL of a sodium acetate buffer (25 mM, pH 5.2), and resulting mixtures each were allowed to stand for 10 min and then diluted with 230 μL of a Opti-MEM medium to obtain mRNA-loaded complex particle solutions; a medium for the DC 2.4 cells in the plate was removed, then the DC 2.4 cells were washed once with PBS, and the complex particle solutions each were added; and the cells were cultured for 24 h, an mRNA transfection efficiency in cells was observed by FCM and LSCM. A commercial gene transfection reagent Lipofectamine 2000 was adopted as a positive control.

[4] = system: A549 cells (A549-Luc) stably expressing the luciferase reporter gene; assay: siRNA transfection and luciferase gene silencing in A549-Luc cells; assay type: cell-based; conditions: material 0.5-3 μg/well, siRNA 100 nM, 48 h
Text: In this experiment, with I2R2C18-1A1, I2R3C18-1A1, I2R2C18-2A1, and I2R3C18-2A1 as representative cationic lipid analog materials, A549 cells (A549-Luc) stably expressing the luciferase reporter gene as model cells, and a siRNA sequence specifically targeting the luciferase reporter gene as model siRNA, siRNA transfection and delivery effects of the cationic lipid analog materials were investigated. A specific operation method was as follows:
Luciferase-expressing A549 cells (A549-Luc) were inoculated in a 96-well plate and cultured in an incubator for 12 h; each of different materials (0.5 μg/well to 3 μg/well) was mixed with siRNA in […] of a sodium acetate buffer (25 mM, pH 5.2), and resulting mixtures each were allowed to stand for 10 min and then diluted with 460 μL of a Opti-MEM medium to obtain siRNA-loaded complex particle solutions (final siRNA concentration: 100 nM); a medium for the A549-Luc cells in the plate was removed, then the A549-Luc cells were washed once with PBS, and the complex particle solutions each were added in a volume of 125 μL; the cells were further cultured for 48 h, then a resulting culture supernatant was discarded, and the cells were fully lysed; and a substrate was added at 50 μl/well, and an expression level of luciferase was detected by a multi-mode microplate reader.

CCCCCCCC/C=C\CCCCCCCC(=O)N(CCCN(CC)CC)C(C(=O)NCCOCCOCCNC(=O)C(C(C)C)N(CCCN(CC)CC)C(=O)CCCCCCC/C=C\CCCCCCCC)C(C)C (stereo not drawn) [I2R3C18-1A1]
transfection efficiency of GFP-expressing plasmid DNA (positive rate) (HeLa cells [1]): equivalent to or higher than | transfection efficiency of luciferase-expressing plasmid DNA (luciferase expression) (HeLa cells [2]): equivalent to or higher than | transfection of GFP-expressing plasmid DNA in different types of cells [3]: can transfect GFP-expressing plasmid DNA into tumor cells and immune cells | mRNA transfection efficiency (eGFP-mRNA) (DC 2.4 cells): equivalent to or higher than | dose dependence of gene silencing efficiency [4]: increases with the increase of an amount of the cationic lipid analog material | siRNA transfection and silencing of luciferase reporter gene expression [4]: can transfect siRNA into cells to specifically silence the expression of the luciferase reporter gene

From patent publication US20230390402A1, “IONIZABLE CATIONIC LIPID ANALOG MATERIAL AND USE THEREOF AS DRUG DELIVERY CARRIER” (GUANGZHOU LIDE BIOMEDICINE TECHNOLOGY CO., LTD., priority 2021, published 2023)
